The values that follow come from patent US11267826B2, “Penicillin-binding protein inhibitors” (priority 2017, dated 2022).

For experiment [1], the system named is hyper-permeable E. coli 901C. In words: Broth microdilution MIC assay, hyper-permeable E. coli. It is filed as cell-based. The following applies: Escherichia coli, read-out: E. coli 901C MIC. The protocol: (§1) To determine the ability of test compounds to potentiate the inhibition of the growth of bacterial strains, classic cell based broth microdilution MIC assays were employed. MIC assays are performed according to CLSI methods except where otherwise noted (CLSI, 2011 and CLSI, 2009). The reference strain S. aureus ATCC 29213 and the hyper-permeable E. coli 901C were used to determine the ability of the PBP compounds to inhibit bacterial growth. Briefly, cryo-preserved bacterial cultures of clinical strains are streaked for isolation on appropriate agar medium, in this case Mueller Hinton II agar. Following incubation to allow formation of colonies these plates are sealed with parafilm and stored refrigerated for up to two weeks. For preparation of assay inocula and to ensure low variability, at least 5 colonies are picked from the agar plates with an inoculating loop and aseptically transferred to a culture tube containing 3 mL of Mueller-Hinton Broth (supplemented with divalent cations to required levels based on Manufacturers' certification). The broth culture is grown for 3-5 hours at 37° C. with shaking at 200 rpm. Meanwhile, 2-fold serial dilutions of test compounds are conducted in a 96 well plate with a final volume of 75 μL per well at 2-fold the final desired concentration. After the dilution plates are set up the growing cultures are then diluted in a cuvette containing MH II broth and the optical density is measured at 600 nm. Inocula are diluted such that 75 μL of this culture in Mueller-Hinton Broth results in a starting bacterial concentration of 5×10^5 CFU/mL when added to the dilution plates. The plates are incubated 16-20 hours at 37° C. The MIC is read visually as the lowest concentration well with no bacterial growth.
(In general: Dilution methods test growth across graded concentrations, often in twofold steps.)

Experiment [2] concerns S. aureus ATCC 29213. In words: Broth microdilution MIC assay, S. aureus. The class given is cell-based. Particulars: Staphylococcus aureus, ATCC29213; broth microdilution, 16-20 hours at 37° C.; read-out: S. aureus 29213 MIC. The protocol:
as §1

Molecules are shown by their SMILES. A value given as a limit tells only on which side of the number the result lay.

By MIC is commonly meant the least concentration at which growth counts as inhibited. Take `NCCO/N=C(\C(=O)N[C@H]1Cc2cccc(C(=O)O)c2OB1O)c1csc(N)n1` [Example 105, (R,Z)-3-(2-((2-aminoethoxy)imino)-2-(2-aminothiazol-4-yl)acetamido)-2-hydroxy-3,4-dihydro-2H-benzo[e][1,2]oxaborinine-8-carboxylic Acid]: the minimum inhibitory concentration (MIC) was under 64 µg/mL in experiment [1] and over 128 µg/mL in experiment [2].

For `NCCn1nnc(C(=NO)C(=O)N[C@H]2Cc3cccc(C(=O)O)c3OB2O)n1` [Example 111, (R)-3-(2-(2-(2-aminoethyl)-2H-tetrazol-5-yl)-2-(hydroxyimino)acetamido)-2-hydroxy-3,4-dihydro-2H-benzo[e][1,2]oxaborinine-8-carboxylic Acid], the MIC in experiment [1] and in experiment [2] was over 128 µg/mL each time.

Consider `CCCO/N=C(\C(=O)N[C@H]1Cc2cccc(C(=O)O)c2OB1O)c1csc(N)n1` [Example 98, (R,Z)-3-(2-(2-aminothiazol-4-yl)-2-(propoxyimino)acetamido)-2-hydroxy-3,4-dihydro-2H-benzo[e][1,2]oxaborinine-8-carboxylic Acid], for which the minimum inhibitory concentration (MIC) in experiment [1] and in experiment [2] was under 64 µg/mL in each case.

With `Nc1nc(/C(=N/O)C(=O)N[C@H]2Cc3ccc(C=O)c(C(=O)O)c3OB2O)cs1` [Example 24, (R,Z)-3-(2-(2-aminothiazol-4-yl)-2-(hydroxyimino)acetamido)-7-formyl-2-hydroxy-3,4-dihydro-2H-benzo[e][1,2]oxaborinine-8-carboxylic Acid], the figures for the MIC in experiment [1] and in experiment [2] were over 128 µg/mL and 64 to 128 µg/mL, respectively.

Consider `CNc1nc(/C(=N/O)C(=O)N(C)[C@H]2Cc3cccc(C(=O)O)c3OB2O)cs1` [Example 22, (R,Z)-2-hydroxy-3-(2-(hydroxyimino)-N-methyl-2-(2-(methylamino)thiazol-4-yl)acetamido)-3,4-dihydro-2H-benzo[e][1,2]oxaborinine-8-carboxylic Acid], for which the MIC in experiment [1] and in experiment [2] was over 128 µg/mL in each case.

With `COc1ccc(CSc2nc(/C(=N/O)C(=O)N[C@H]3Cc4cccc(C(=O)O)c4OB3O)cs2)cc1` [Example 92, (R,Z)-2-hydroxy-3-(2-(hydroxyimino)-2-(2-((4-methoxybenzyl)thio)thiazol-4-yl)acetamido)-3,4-dihydro-2H-benzo[e][1,2]oxaborinine-8-carboxylic Acid], the MIC in experiment [1] is over 128 µg/mL; in experiment [2], under 64 µg/mL.

As to `NCCNC(=O)CO/N=C(\C(=O)N[C@H]1Cc2cccc(C(=O)O)c2OB1O)c1csc(N)n1` [Example 54, (R,Z)-3-(2-((2-((2-aminoethyl)amino)-2-oxoethoxy)imino)-2-(2-aminothiazol-4-yl)acetamido)-2-hydroxy-3,4-dihydro-2H-benzo[e][1,2]oxaborinine-8-carboxylic Acid], the MIC in experiment [1] was under 64 µg/mL; in experiment [2] it was over 128 µg/mL.

Take `Nc1nc(/C(=N/OCC(F)(F)F)C(=O)N[C@H]2Cc3cccc(C(=O)O)c3OB2O)cs1` [Example 117, (R,Z)-3-(2-(2-aminothiazol-4-yl)-2-((2,2,2-trifluoroethoxy)imino)acetamido)-2-hydroxy-3,4-dihydro-2H-benzo[e][1,2]oxaborinine-8-carboxylic Acid]: the minimal inhibitory concentration (MIC) in experiment [1] is under 64 µg/mL; in experiment [2] it was 64 to 128 µg/mL.

Turning to `Nc1nc(C(=CCCO)C(=O)N[C@H]2Cc3cccc(C(=O)O)c3OB2O)cs1` [Example 85, (R)-3-(2-(2-aminothiazol-4-yl)-5-hydroxypent-2-enamido)-2-hydroxy-3,4-dihydro-2H-benzo[e][1,2]oxaborinine-8-carboxylic Acid], the MIC in experiment [1] and in experiment [2] was 64 to 128 µg/mL throughout.

Consider `Nc1nc(/C(=N/O)C(=O)N[C@H]2Cc3cc(CN4CCCC4)cc(C(=O)O)c3OB2O)cs1` [Example 33, (R,Z)-3-(2-(2-aminothiazol-4-yl)-2-(hydroxyimino)acetamido)-2-hydroxy-6-(pyrrolidin-1-ylmethyl)-3,4-dihydro-2H-benzo[e][1,2]oxaborinine-8-carboxylic Acid], for which the results for the minimal inhibitory concentration (MIC) in experiment [1] and in experiment [2] were over 128 µg/mL and under 64 µg/mL, respectively.

As for `O=C(N[C@H]1Cc2cccc(C(=O)O)c2OB1O)/C(=N\O)c1csc(S)n1` [Example 91, (R,Z)-2-hydroxy-3-(2-(hydroxyimino)-2-(2-mercaptothiazol-4-yl)acetamido)-3,4-dihydro-2H-benzo[e][1,2]oxaborinine-8-carboxylic Acid], the MIC in experiment [1] is over 128 µg/mL; in experiment [2] it was under 64 µg/mL.

As for `N=C(N)Nc1nc(/C(=N/O)C(=O)N[C@H]2Cc3cccc(C(=O)O)c3OB2O)cs1` [Example 11, (R,Z)-3-(2-(2-guanidinothiazol-4-yl)-2-(hydroxyimino)acetamido)-2-hydroxy-3,4-dihydro-2H-benzo[e][1,2]oxaborinine-8-carboxylic Acid], the MIC is over 128 µg/mL in experiment [1] and under 64 µg/mL in experiment [2].

On to `NC(=O)CNc1nc(/C(=N/O)C(=O)N[C@H]2Cc3cccc(C(=O)O)c3OB2O)cs1` [Example 109, (R,Z)-3-(2-(2-((2-amino-2-oxoethyl)amino)thiazol-4-yl)-2-(hydroxyimino)acetamido)-2-hydroxy-3,4-dihydro-2H-benzo[e][1,2]oxaborinine-8-carboxylic Acid], for which the MIC in experiment [1] and in experiment [2] was over 128 µg/mL throughout.

As for `O=C(N[C@H]1Cc2cccc(C(=O)O)c2OB1O)/C(=N\O)c1csc(NCCc2ccccn2)n1` [Example 122, (R,Z)-2-hydroxy-3-(2-(hydroxyimino)-2-(2-((2-(pyridin-2-yl)ethyl)amino)thiazol-4-yl)acetamido)-3,4-dihydro-2H-benzo[e][1,2]oxaborinine-8-carboxylic Acid], the MIC in experiment [1] was over 128 µg/mL; in experiment [2], under 64 µg/mL.

`Nc1nc(/C(=N/OCC(F)F)C(=O)N[C@H]2Cc3cccc(C(=O)O)c3OB2O)cs1` [Example 114, (R,Z)-3-(2-(2-aminothiazol-4-yl)-2-((2,2-difluoroethoxy)imino)acetamido)-2-hydroxy-3,4-dihydro-2H-benzo[e][1,2]oxaborinine-8-carboxylic Acid]: the figures for the minimal inhibitory concentration (MIC) in experiment [1] and in experiment [2] were under 64 µg/mL and 64 to 128 µg/mL, respectively.

As for `NCCN(CCN)c1nc(/C(=N/O)C(=O)N[C@H]2Cc3cccc(C(=O)O)c3OB2O)cs1` [Example 94, (R,Z)-3-(2-(2-(bis(2-aminoethyl)amino)thiazol-4-yl)-2-(hydroxyimino)acetamido)-2-hydroxy-3,4-dihydro-2H-benzo[e][1,2]oxaborinine-8-carboxylic Acid], the minimum inhibitory concentration (MIC) was over 128 µg/mL in experiment [1] and under 64 µg/mL in experiment [2].

Take `CO/N=C(\C(=O)N[C@H]1Cc2cccc(C(=O)O)c2OB1O)c1ccc2c(c1)CNC2` [Example 5, (R,Z)-2-hydroxy-3-(2-(isoindolin-5-yl)-2-(methoxyimino)acetamido)-3,4-dihydro-2H-benzo[e][1,2]oxaborinine-8-carboxylic Acid]: the MIC in experiment [1] and in experiment [2] was over 128 µg/mL throughout.

As for `Nc1nc(/C(=C\c2cccnc2)C(=O)N[C@H]2Cc3cccc(C(=O)O)c3OB2O)cs1` [Example 86, (R,E)-3-(2-(2-aminothiazol-4-yl)-3-(pyridin-3-yl)acrylamido)-2-hydroxy-3,4-dihydro-2H-benzo[e][1,2]oxaborinine-8-carboxylic Acid], the MIC is under 64 µg/mL in experiment [1] and 64 to 128 µg/mL in experiment [2].

As for `COc1cc2c(c(C(=O)O)c1)OB(O)[C@@H](NC(=O)/C(=N\OC(C)(C)C(N)=O)c1csc(N)n1)C2` [Example 81, (R,Z)-3-(2-(((1-amino-2-methyl-1-oxopropan-2-yl)oxy)imino)-2-(2-aminothiazol-4-yl)acetamido)-2-hydroxy-6-methoxy-3,4-dihydro-2H-benzo[e][1,2]oxaborinine-8-carboxylic Acid], the MIC was under 64 µg/mL in experiment [1] and over 128 µg/mL in experiment [2].

In the case of `Nc1nc(/C(=N/O)C(=O)N[C@H]2Cc3cc(OC(F)(F)F)cc(C(=O)O)c3OB2O)cs1` [Example 45, (R,Z)-3-(2-(2-aminothiazol-4-yl)-2-(hydroxyimino)acetamido)-2-hydroxy-6-(trifluoromethoxy)-3,4-dihydro-2H-benzo[e][1,2]oxaborinine-8-carboxylic Acid], the minimal inhibitory concentration (MIC) in experiment [1] and in experiment [2] was under 64 µg/mL each time.

With `CC(C)O/N=C(\C(=O)N[C@H]1Cc2cccc(C(=O)O)c2OB1O)c1csc(N)n1` [Example 97, (R,Z)-3-(2-(2-aminothiazol-4-yl)-2-(isopropoxyimino)acetamido)-2-hydroxy-3,4-dihydro-2H-benzo[e][1,2]oxaborinine-8-carboxylic Acid], the MIC was over 128 µg/mL in experiment [1] and 64 to 128 µg/mL in experiment [2].

As to `NCCON=C(C(=O)N[C@H]1Cc2cccc(C(=O)O)c2OB1O)c1nnn[nH]1` [Example 110, (R)-3-(2-((2-aminoethoxy)imino)-2-(1H-tetrazol-5-yl)acetamido)-2-hydroxy-3,4-dihydro-2H-benzo[e][1,2]oxaborinine-8-carboxylic Acid], the minimal inhibitory concentration (MIC) in experiment [1] and in experiment [2] was over 128 µg/mL each time.

In the case of `O=C(N[C@H]1Cc2cccc(C(=O)O)c2OB1O)/C(=N\O)c1csc(NCCF)n1` [Example 101, (R,Z)-3-(2-(2-((2-fluoroethyl)amino)thiazol-4-yl)-2-(hydroxyimino)acetamido)-2-hydroxy-3,4-dihydro-2H-benzo[e][1,2]oxaborinine-8-carboxylic Acid], the minimum inhibitory concentration (MIC) in experiment [1] is 64 to 128 µg/mL; in experiment [2], over 128 µg/mL.
